Results taken from ChEMBL document CHEMBL5126623, “Dual Targeting of Steroid Sulfatase and 17β-Hydroxysteroid Dehydrogenase Type 1 by a Novel Drug-Prodrug Approach: A Potential Therapeutic Option for the Treatment of Endometriosis” (J Med Chem, 2022).

Assays:
Homo sapiens = organism: Homo sapiens; test: Selectivity ratio of IC50 for human placental microsomal fraction 17beta-HSD2 to IC50 for human placental cytosolic fraction 17beta-HSD1
[1] = target: T1, 17-beta-hydroxysteroid dehydrogenase type 1 (Homo sapiens, UniProt P14061); test: Inhibition of human placental cytosolic fraction 17beta-HSD1 using [3H]-E1 as substrate in presence of NADH measured after 10 mins by HPLC method; format: subcellular, Placenta, Cytosol
T1 sequence (P14061 whole entry): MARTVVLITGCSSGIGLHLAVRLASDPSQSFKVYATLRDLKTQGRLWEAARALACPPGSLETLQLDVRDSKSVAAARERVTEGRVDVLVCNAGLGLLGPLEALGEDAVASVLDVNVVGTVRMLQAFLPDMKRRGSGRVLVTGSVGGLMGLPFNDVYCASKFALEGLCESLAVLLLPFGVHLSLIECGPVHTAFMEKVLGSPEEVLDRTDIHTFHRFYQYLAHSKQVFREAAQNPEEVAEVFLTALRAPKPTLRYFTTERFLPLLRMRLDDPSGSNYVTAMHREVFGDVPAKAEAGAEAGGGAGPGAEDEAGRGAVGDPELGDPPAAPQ

[2] = target: T1, 17-beta-hydroxysteroid dehydrogenase type 1; test: Inhibition of 17beta-HSD1 in human T47D cells using [3H]E1S as substrate measured after 24 hrs by HPLC analysis; format: cell-based
[3] = target: T2, 17-beta-hydroxysteroid dehydrogenase type 2 (Homo sapiens, UniProt P37059); test: Inhibition of human placental microsomal fraction 17beta-HS2 using [3H]-E2 as substrate in presence of NAD+ measured after 10 mins by HPLC method; format: subcellular, Placenta, Microsome
T2 sequence (P37059 whole entry): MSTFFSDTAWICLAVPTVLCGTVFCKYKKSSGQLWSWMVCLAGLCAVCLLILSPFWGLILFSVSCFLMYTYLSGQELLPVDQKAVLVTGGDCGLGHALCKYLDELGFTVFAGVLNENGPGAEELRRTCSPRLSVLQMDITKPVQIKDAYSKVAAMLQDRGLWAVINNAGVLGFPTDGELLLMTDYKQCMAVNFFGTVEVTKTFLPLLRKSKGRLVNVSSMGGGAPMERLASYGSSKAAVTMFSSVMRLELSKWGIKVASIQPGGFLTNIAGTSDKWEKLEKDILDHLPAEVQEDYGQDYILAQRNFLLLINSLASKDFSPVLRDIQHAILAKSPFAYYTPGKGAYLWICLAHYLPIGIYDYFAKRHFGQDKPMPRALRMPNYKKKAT

Steryl-sulfatase [4] = target: T3, Steryl-sulfatase (Homo sapiens, UniProt P08842); test: Inhibition of STS in human T47D cells using [3H]E1S as substrate measured after 24 hrs by HPLC analysis; format: cell-based
T3 sequence (P08842 whole entry): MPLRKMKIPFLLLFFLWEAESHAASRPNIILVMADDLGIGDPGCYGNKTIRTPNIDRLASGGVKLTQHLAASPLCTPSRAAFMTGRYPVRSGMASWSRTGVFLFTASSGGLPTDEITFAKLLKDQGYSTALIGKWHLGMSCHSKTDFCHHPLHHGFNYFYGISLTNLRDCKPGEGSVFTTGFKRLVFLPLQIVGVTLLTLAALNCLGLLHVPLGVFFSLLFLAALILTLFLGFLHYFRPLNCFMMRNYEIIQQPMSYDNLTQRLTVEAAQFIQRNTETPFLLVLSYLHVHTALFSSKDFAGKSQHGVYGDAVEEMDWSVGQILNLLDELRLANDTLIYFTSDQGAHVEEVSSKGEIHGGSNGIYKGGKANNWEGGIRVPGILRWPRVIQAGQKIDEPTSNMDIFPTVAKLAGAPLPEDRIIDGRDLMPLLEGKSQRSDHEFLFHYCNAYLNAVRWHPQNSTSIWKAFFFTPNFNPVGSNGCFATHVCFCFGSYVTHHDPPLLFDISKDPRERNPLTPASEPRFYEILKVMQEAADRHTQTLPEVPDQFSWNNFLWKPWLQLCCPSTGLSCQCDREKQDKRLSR

[5] = Metabolic stability in mouse liver S9 fraction assessed as half life at 1 uM in presence of NADPH measured upto 60 min by LC-MS/MS analysis; format: ADME, subcellular
[6] = Metabolic stability in human liver S9 fraction assessed as half life at 1 uM in presence of NADPH measured upto 60 min by LC-MS/MS analysis; format: ADME, subcellular
[7] = Metabolic stability in human liver S9 fraction assessed as intrinsic clearance at 1 uM in presence of NADPH measured upto 60 min by LC-MS/MS analysis; format: ADME, subcellular; settings: s9, 1 h
[8] = Metabolic stability in mouse liver S9 fraction assessed as intrinsic clearance at 1 uM in presence of NADPH measured upto 60 min by LC-MS/MS analysis; format: ADME, subcellular; settings: s9, 1 h
Steryl-sulfatase [9] = target: T3, Steryl-sulfatase; test: Irreversible inhibition of STS in human T47D cells using [3H]E1S as substrate measured after 24 hrs by HPLC analysis; format: cell-based
[10] = Cytotoxicity against human HEK293 cells assessed as cell growth inhibition at 20 uM measured at 48 hrs bt MTT assay relative to control; format: toxicity, cell-based
[11] = target: T4, 17-beta-hydroxysteroid dehydrogenase type 1 (Homo sapiens) (UniProt P14061); settings: dose 50.0 nM, time 6.5 hrs
T4 sequence (whole entry): T1 sequence (P14061 whole entry)
Description: Inhibition of human placental cytosolic fraction 17beta-HSD1 at 50 nM using [3H]-E1 as substrate in presence of NADH measured after 6.5 hrs by LC-MS/MS method

[12] = Stability in human T47D cells cultured in DMEM medium measured after 24 hrs by LC-MS/MS analysis; format: ADME, cell-based; settings: read-out: Stability
[13] = Stability of compound in phosphate buffer measured after 24 hrs by LC-MS/MS analysis; format: physicochemical; settings: read-out: Stability
[14] = target: T4, 17-beta-hydroxysteroid dehydrogenase type 1 (Homo sapiens); test: Inhibition of human 17beta-HSD1 at 50 nM using [3H]-E1 as substrate measured after 13.5 hrs in presence of NADH by LC-MS/MS analysis
[15] = target: T4, 17-beta-hydroxysteroid dehydrogenase type 1 (Homo sapiens); settings: dose 50.0 nM, time 24.0 hrs

Ratio IC50 (Homo sapiens)	IC50 [1]	IC50 [2]	IC50 [3]	IC50 (Steryl-sulfatase [4])	SMILES	also measured
54	41 nM	12 nM	2.2 µM		Cc1ccc(F)cc1N(C)C(=O)c1ccc(-c2ccc(O)cc2)o1	
> 77	260 nM	64 nM	> 20 µM		Cc1ccncc1N(C)C(=O)c1ccc(-c2ccc(O)cc2)o1	
> 40	250 nM	110 nM	> 10 µM		Cc1ccccc1N(C)C(=O)c1coc(-c2ccc(O)cc2)n1	
85	11 nM	10 nM			Cc1ccccc1N(C)C(=O)c1ccc(-c2ccc(O)c(F)c2)o1	
				1100 nM	Cc1ccccc1N(C)C(=O)c1nnc(-c2ccc(OS(N)(=O)=O)cc2)o1	
				690 nM	Cc1ccccc1N(C)C(=O)c1ccc(-c2cccc(OS(N)(=O)=O)c2)o1	
				130 nM	Cc1ccccc1N(C)C(=O)c1cnc(-c2ccc(OS(N)(=O)=O)cc2)s1	
				40 nM	Cc1ccc(F)cc1N(C)C(=O)c1ccc(-c2ccc(OS(N)(=O)=O)cc2)o1	half-life at 1 µM [5]: 3.9 min; half-life at 1 µM [6]: 34 min; intrinsic clearance [7]: 21 µL/min/mg; intrinsic clearance [8]: 180 µL/min/mg
13		14 nM			Cc1ccccc1N(C)C(=O)c1ccc(-c2ccc(O)cc2Cl)o1	
19	150 nM	29 nM	2.8 µM		Cc1ccccc1N(C)C(=O)c1ccc(-c2cccc(O)c2)o1	
115	34 nM	12 nM	3.9 µM		Cc1ccccc1N(C)C(=O)c1csc(-c2ccc(O)cc2)n1	
7.5	600 nM	340 nM	4.5 µM		Cc1ccccc1N(C)C(=O)c1cnc(-c2ccc(O)cc2)s1	
				17 nM	Cc1ccccc1N(C)C(=O)c1ccc(-c2ccc(OS(N)(=O)=O)c(F)c2)o1	half-life at 1 µM [5]: 6.1 min; half-life at 1 µM [6]: 43 min; IC50 (Steryl-sulfatase [9]): 17 nM; intrinsic clearance [7]: 16 µL/min/mg; intrinsic clearance [8]: 140 µL/min/mg
				270 nM	Cc1ncccc1N(C)C(=O)c1ccc(-c2ccc(OS(N)(=O)=O)cc2)o1	
				1100 nM	Cc1cccnc1N(C)C(=O)c1ccc(-c2ccc(OS(N)(=O)=O)cc2)o1	
				63 nM	Cc1ccccc1N(C)C(=O)c1csc(-c2ccc(OS(N)(=O)=O)cc2)n1	half-life at 1 µM [5]: 15 min; half-life at 1 µM [6]: 50 min; IC50 (Steryl-sulfatase [9]): 60 nM; intrinsic clearance [7]: 14 µL/min/mg; intrinsic clearance [8]: 46 µL/min/mg
23	170 nM	50 nM	3.9 µM		Cc1c(F)cccc1N(C)C(=O)c1ccc(-c2ccc(O)cc2)o1	
					O=c1ccc2ccc(O)cc2o1 [UMBELLIFERONE]	intrinsic clearance [7]: 140 µL/min/mg; intrinsic clearance [8]: 280 µL/min/mg
				28 nM	Cc1ccccc1N(C)C(=O)c1ccc(-c2ccc(OS(N)(=O)=O)cc2)o1	inhibition at 48 h, 20 µM [10]: 11.7%; inhibition [11]: 50%; half-life at 1 µM [5]: 25 min; half-life at 1 µM [6]: 47 min; IC50 (Steryl-sulfatase [9]): 31 nM; remaining at 24 h [12]: 94%; intrinsic clearance [7]: 15 µL/min/mg; remaining at 24 h [13]: 40%; intrinsic clearance [8]: 31 µL/min/mg
				570 nM	Cc1cc(-c2ccc(C(=O)N(C)c3ccccc3C)o2)ccc1OS(N)(=O)=O	

Ratio IC50 (Homo sapiens)	IC50 [1]	IC50 [2]	IC50 [3]	IC50 (Steryl-sulfatase [4])	SMILES	also measured
				27 nM	Cc1ccccc1N(C)C(=O)c1ccc(-c2ccc(OS(N)(=O)=O)cc2Cl)o1	inhibition at 48 h, 20 µM [10]: 11.7%; half-life at 1 µM [5]: 20 min; half-life at 1 µM [6]: 39 min; IC50 (Steryl-sulfatase [9]): 29 nM; intrinsic clearance [7]: 18 µL/min/mg; intrinsic clearance [8]: 39 µL/min/mg
> 3	3300 nM	1100 nM	> 10 µM		Cc1cccnc1N(C)C(=O)c1ccc(-c2ccc(O)cc2)o1	
51		21 nM			Cc1ccccc1N(C)C(=O)c1ccc(-c2ccc(O)cc2)o1	inhibition [14]: 50%; inhibition [15]: < 60%
				14 nM	Cc1cc(F)ccc1N(C)C(=O)c1ccc(-c2ccc(OS(N)(=O)=O)cc2)o1	half-life at 1 µM [5]: 4.6 min; half-life at 1 µM [6]: 44 min; IC50 (Steryl-sulfatase [9]): 15 nM; intrinsic clearance [7]: 16 µL/min/mg; intrinsic clearance [8]: 150 µL/min/mg
> 190	160 nM	43 nM	> 30 µM		Cc1ncccc1N(C)C(=O)c1ccc(-c2ccc(O)cc2)o1	
42		10 nM			Cc1ccccc1N(C)C(=O)c1ccc(-c2ccc(O)cc2F)o1	
10	310 nM	120 nM	3.2 µM		Cc1cccc(F)c1N(C)C(=O)c1ccc(-c2ccc(O)cc2)o1	
74	23 nM	7.6 nM	1.7 µM		Cc1cc(F)ccc1N(C)C(=O)c1ccc(-c2ccc(O)cc2)o1	
74		52 nM			Cc1ccccc1N(C)C(=O)c1ccc(-c2ccc(O)c(Cl)c2)o1	inhibition at 48 h, 20 µM [10]: 55%
150		8.6 nM			Cc1cc(-c2ccc(C(=O)N(C)c3ccccc3C)o2)ccc1O	
				25 nM	Cc1ccccc1N(C)C(=O)c1ccc(-c2ccc(OS(N)(=O)=O)c(Cl)c2)o1	inhibition at 48 h, 20 µM [10]: 55%; half-life at 1 µM [5]: 31 min; half-life at 1 µM [6]: 48 min; IC50 (Steryl-sulfatase [9]): 27 nM; intrinsic clearance [7]: 15 µL/min/mg; intrinsic clearance [8]: 24 µL/min/mg
				150 nM	Cc1cccc(F)c1N(C)C(=O)c1ccc(-c2ccc(OS(N)(=O)=O)cc2)o1	
13	490 nM	320 nM	6.2 µM		Cc1ccccc1N(C)C(=O)c1nnc(-c2ccc(O)cc2)o1	
				820 nM	Cc1ccncc1N(C)C(=O)c1ccc(-c2ccc(OS(N)(=O)=O)cc2)o1	
				27 nM	Cc1c(F)cccc1N(C)C(=O)c1ccc(-c2ccc(OS(N)(=O)=O)cc2)o1	half-life at 1 µM [5]: 4.8 min; half-life at 1 µM [6]: 21 min; IC50 (Steryl-sulfatase [9]): 25 nM; intrinsic clearance [7]: 29 µL/min/mg; intrinsic clearance [8]: 150 µL/min/mg
				12 nM	Cc1ccccc1N(C)C(=O)c1ccc(-c2ccc(OS(N)(=O)=O)cc2F)o1	half-life at 1 µM [5]: 23 min; half-life at 1 µM [6]: 51 min; IC50 (Steryl-sulfatase [9]): 16 nM; intrinsic clearance [7]: 14 µL/min/mg; intrinsic clearance [8]: 38 µL/min/mg
					NS(=O)(=O)Oc1ccc2c3c(c(=O)oc2c1)CCCCC3 [IROSUSTAT]	half-life at 1 µM [5]: 3 min
				60 nM	Cc1ccccc1N(C)C(=O)c1coc(-c2ccc(OS(N)(=O)=O)cc2)n1	half-life at 1 µM [5]: 47 min; half-life at 1 µM [6]: 180 min; IC50 (Steryl-sulfatase [9]): 68 nM; intrinsic clearance [7]: 3.9 µL/min/mg; intrinsic clearance [8]: 15 µL/min/mg
> 5.2	1900 nM	1900 nM	> 10 µM		Cc1ccccc1N(C)C(=O)c1ccc(-c2ccccc2O)o1	
